The Kd is a measure of binding affinity in units of concentration. High values mean weaker binding, low ones tighter binding.

Data on 4 molecules can be found in publication PMC5529423, “ATP-dependent modulation of MgtE in Mg^2+ homeostasis” (Nature Communications, 2017).

The target in series [1] is T1, TtMgtE (full-length MgtE) (Thermus thermophilus, UniProt Q5SMG8).
T1 construct: full-length, expressed in E. coli C41 (DE3), Ni-NTA and gel filtration in detergent; homodimer; tag not described
T1 sequence (Q5SMG8 1-450): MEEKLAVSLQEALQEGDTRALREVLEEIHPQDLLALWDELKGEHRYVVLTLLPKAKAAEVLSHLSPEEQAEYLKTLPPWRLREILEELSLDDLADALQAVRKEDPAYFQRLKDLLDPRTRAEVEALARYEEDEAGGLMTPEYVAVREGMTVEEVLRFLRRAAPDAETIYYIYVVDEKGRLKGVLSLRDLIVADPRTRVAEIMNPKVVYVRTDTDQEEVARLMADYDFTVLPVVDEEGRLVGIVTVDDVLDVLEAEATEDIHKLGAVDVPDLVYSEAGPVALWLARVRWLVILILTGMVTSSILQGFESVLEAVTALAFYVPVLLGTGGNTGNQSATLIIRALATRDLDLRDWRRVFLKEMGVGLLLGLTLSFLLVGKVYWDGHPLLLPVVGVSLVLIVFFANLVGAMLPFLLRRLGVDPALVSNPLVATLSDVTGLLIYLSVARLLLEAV
Description: isothermal titration calorimetry. Type of series: binding.

For series [2], the target named is T2, TtMgtE (full-length MgtE) (Thermus thermophilus, UniProt Q5SMG8, R187E).
T2 construct: full-length, expressed in E. coli C41 (DE3), Ni-NTA and gel filtration in detergent; homodimer; tag not described
Description: isothermal titration calorimetry. Type of series: binding. To be noted: 20 °C, no added Mg2+, NTM detergent, ligand solution pH 6.5; CBS domain site. On the technique in general: Isothermal titration calorimetry measures the heat released or taken up as one component is titrated into another.

Series [3] deals with the molecule itself. Kind of series: crystal structure; full-length MgtE with ATP; vapor diffusion over 9% PEG 4000, 0.2 M MgCl2, 0.05 M MES pH 6.5; 3.6 Å.
Series [4] concerns the molecule itself. Kind of series: crystal structure; cytosolic domain (1-275) with ATP; vapor diffusion over 20-22% PEG 400, 0.2 M MgCl2, 0.1 M HEPES pH 7.4; 3.0 Å.

T2 sequence (Q5SMG8 whole entry R187E): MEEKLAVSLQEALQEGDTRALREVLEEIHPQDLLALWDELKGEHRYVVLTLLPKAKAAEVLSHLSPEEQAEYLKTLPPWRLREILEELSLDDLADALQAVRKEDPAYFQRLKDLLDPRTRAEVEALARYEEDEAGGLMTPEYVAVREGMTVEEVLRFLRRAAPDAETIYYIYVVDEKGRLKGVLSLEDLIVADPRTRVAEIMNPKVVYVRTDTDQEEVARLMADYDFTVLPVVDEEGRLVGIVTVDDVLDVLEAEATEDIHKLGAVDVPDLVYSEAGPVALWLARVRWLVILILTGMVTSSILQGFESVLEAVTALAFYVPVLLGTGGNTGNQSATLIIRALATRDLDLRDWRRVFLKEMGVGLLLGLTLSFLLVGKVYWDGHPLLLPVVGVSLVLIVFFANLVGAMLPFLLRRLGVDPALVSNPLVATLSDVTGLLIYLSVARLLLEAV

In series [1], `Nc1ncnc2c1ncn2[C@@H]1O[C@H](COP(=O)(O)OP(=O)(O)O)[C@@H](O)[C@H]1O` [ADP] had a Kd of 763 µM.

Turning to `Nc1ncnc2c1ncn2[C@@H]1O[C@H](COP(=O)(O)OP(=O)(O)OP(=O)(O)O)[C@@H](O)[C@H]1O` [ATP], the isothermal titration calorimetry result in series [2] is “The injection of ATP into the R187E mutant solution still showed the weaker binding to ATP”. For the same molecule, the Kd in series [1] came to 415 µM.

B1: full-length Thermus thermophilus MgtE (natural protein, UniProt Q5SMG8 1-450, looked up)
chain: T1 sequence (Q5SMG8 1-450)
notes: MgtE Mg2+ channel of Thermus thermophilus, full length; crystallised with ATP and Mg2+; That MgtE is a homodimer is said in the introduction, of the earlier full-length structure; also called TtMgtE; wild type MgtE; source: E. coli C41 (DE3), solubilized with DDM, purified (Ni-NTA, Superdex 200 SEC)
Turning to B1, the binding result in series [3] was “binds”.

B2: cytosolic domain (1-275) of MgtE (domain or fragment, Thermus thermophilus, UniProt Q5SMG8 1-275, looked up)
chain: MEEKLAVSLQEALQEGDTRALREVLEEIHPQDLLALWDELKGEHRYVVLTLLPKAKAAEVLSHLSPEEQAEYLKTLPPWRLREILEELSLDDLADALQAVRKEDPAYFQRLKDLLDPRTRAEVEALARYEEDEAGGLMTPEYVAVREGMTVEEVLRFLRRAAPDAETIYYIYVVDEKGRLKGVLSLRDLIVADPRTRVAEIMNPKVVYVRTDTDQEEVARLMADYDFTVLPVVDEEGRLVGIVTVDDVLDVLEAEATEDIHKLGAVDVPDLVYSE
notes: MgtE Mg2+ channel of Thermus thermophilus, cytosolic domain (N domain and tandem CBS domains), residues 1-275; crystallised with ATP and Mg2+; also called MgtE cytosolic domain; source: E. coli C41 (DE3), purified
As for B2, the binding result in series [4] is given as “binds”.
